These results are taken from patent US5827890A, “Succinamide derivatives, processes for their preparation and their use as gelatinase and collagenase inhibitors” (Celltech Therapeutics Ltd., priority 1993, dated 1998).

Assay [1] relates to gelatinase A (72 K form). Nature of the assay: Pleural cavity assay, oral activity in mice (injected gelatinase A and radiolabelled [14C]-gelatin). To be noted: for inhibition (comparative experiment): each compound administered at the same dose (dose not stated). It is filed as in vivo. As for the experimental part:
The oral activity of the compounds according to the invention may be determined using the pleural cavity assay described below.
A […] solution of the test compound in an appropriate solvent (e.g. 50% polyethylene glycol (PG) plus a variable proportion of dimethyl sulphoxide (DMSO) (if required) is administered orally. After an interval of up to 24 hrs, 0.4 ml of a mixture of an equal volume (2.2 ml) of the enzyme gelatinase A (72 K form at a concentration of 20 nM) and radiolabelled [^14 C]-gelatin (at an approximate concentration of 10 μM i.e. 500 times molar excess) is injected into the pleural cavity and maintained at […]. After 35 min mice are overdosed with anaesthetic, the contents of the pleural cavity aspirated and the aspirates cleared by centrifugation at 4° C. then diluted to 15% in trichloroacetic acid (TCA) and left overnight at 4° C. The resulting TCA precipitate is then separated by centrifugation and radioactivity in each supernatant measured by scintillation counting. Results are expressed as a % inhibition of enzyme activity calculated by comparing the radioactivity measured for each test compound with a control value obtained by performing the same assay in the absence of a gelatinase inhibitor.
A comparative experiment was carried out using the same procedure and the compound of Example 1 [A] and the amides [B], [C] and [D] (prepared in a similar fashion to the compound of Example 1): [drawing 19]

Assay [2] has as its target T1, Gelatinase 72KD (Homo sapiens, UniProt P08253).
T1 sequence (P08253 110-660): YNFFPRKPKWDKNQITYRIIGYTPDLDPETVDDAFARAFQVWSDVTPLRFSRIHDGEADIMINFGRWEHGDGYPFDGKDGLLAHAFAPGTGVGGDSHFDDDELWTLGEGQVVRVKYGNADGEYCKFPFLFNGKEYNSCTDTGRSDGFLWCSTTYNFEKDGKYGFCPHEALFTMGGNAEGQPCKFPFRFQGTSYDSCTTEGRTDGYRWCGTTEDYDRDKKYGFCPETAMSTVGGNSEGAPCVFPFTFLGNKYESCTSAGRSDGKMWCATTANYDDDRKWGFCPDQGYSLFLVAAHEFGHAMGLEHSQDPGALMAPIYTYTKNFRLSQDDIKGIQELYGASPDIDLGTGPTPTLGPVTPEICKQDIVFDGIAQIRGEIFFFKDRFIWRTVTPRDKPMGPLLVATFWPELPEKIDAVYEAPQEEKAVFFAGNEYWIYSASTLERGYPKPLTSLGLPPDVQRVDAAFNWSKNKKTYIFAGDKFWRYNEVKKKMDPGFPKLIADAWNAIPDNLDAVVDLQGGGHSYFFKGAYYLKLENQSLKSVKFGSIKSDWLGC
Briefly: Enzyme assay to determine Ki values, peptide substrate Dnp-Pro-Leu-Gly-Leu-Trp-Ala-D-Arg-NH2 (gelatinase 72KD). In kind it is biochemical. The note with it: for Ki: incubated overnight, pH 7.5, true Ki from plot of Ki (app) vs. [S]. On the procedure:
(§1) The activity of the compounds of the invention may be determined as described below.
(§2) All enzyme assays to determine Ki values were performed using the peptide substrate Dnp-Pro-Leu-Gly-Leu-Trp-Ala-D-Arg-NH2. [M. Sharon Stock and Robert D. Gray. JBC 264, 4277-81, 1989). The enzymes cleave at the Gly-Leu bond which can be followed fluorimetrically by measuring the increase in Trp fluorescence emission associated with the removal of the quenching dinitrophenol (Dnp) group.
(§3) Brij 35 at either room temperature or 37° C. depending on the enzyme. The reaction is stopped by adjusting the pH to 4 using 0.1M sodium acetate buffer and the fluorescence read at an excitation wavelength of 280 nm and emission wavelength of 346 nm.
(§4) Ki values can be established using the equation for tight-binding inhibition: [formula] where Vo is the initial rate of reaction in the absence of inhibitor, Vi is the initial rate in the presence of inhibitor, [E] is the total enzyme concentration and [I] the total inhibitor concentration in the reaction mixture.
(§5) For stromelysin and collagenase, Ki (app) was assumed to approximate to the true Ki as [S]<<Km for the substrate hydrolysis. For gelatinase the Ki was determined by performing the analyses at several substrate concentrations. A plot of Ki (app) vs. [S] then gave the true Ki as the value of the y-axis intercept.

The test system of assay [3] is vascularisation of sponge implants. Briefly: Inhibition of angiogenesis: vascularisation of sponge implants in mice, xenon clearance. It is filed as in vivo. The note with it: oral, twice per day, 100 mg/kg in PG vehicle, beginning 8 h after sponge implantation. As for the experimental part: Compounds were assessed by their ability to inhibit vascularisation of sponge implants in mice. The amount of vascularisation in this model is determined by the rate of clearance of radioactive xenon from the sponge. Compounds in polyethylene glycol (PG) vehicle were orally administered twice per day at a dose of 100 mg/kg, with administration beginning 8 h after sponge implementation.
FIG. 1 illustrates the result of one experiment using the compound of Example 1. For comparative purposes the following compound (Compound [E]) was used: [drawing 20] (prepared as described in International Patent Application No. PCT/GB 94/00896).
The results are expressed in FIG. 1 as a graph of xenon clearance (expressed as a clearance constant) against time.

For assay [4], the target named is T2, Collagenase (Homo sapiens, UniProt P03956).
T2 sequence (P03956 100-469): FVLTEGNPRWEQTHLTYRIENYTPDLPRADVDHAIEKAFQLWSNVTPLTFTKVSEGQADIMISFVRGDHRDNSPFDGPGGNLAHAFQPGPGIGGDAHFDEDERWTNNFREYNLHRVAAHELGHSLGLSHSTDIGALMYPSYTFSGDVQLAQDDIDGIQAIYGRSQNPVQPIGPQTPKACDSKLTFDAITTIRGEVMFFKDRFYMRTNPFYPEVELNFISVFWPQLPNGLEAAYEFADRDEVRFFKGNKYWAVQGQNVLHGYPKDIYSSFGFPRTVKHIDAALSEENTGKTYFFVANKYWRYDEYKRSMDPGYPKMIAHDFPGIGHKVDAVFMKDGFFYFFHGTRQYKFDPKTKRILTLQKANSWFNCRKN
Nature of the assay: Enzyme assay to determine Ki values, peptide substrate Dnp-Pro-Leu-Gly-Leu-Trp-Ala-D-Arg-NH2 (collagenase). It is filed as biochemical. To be noted: for Ki: incubated overnight, pH 7.5, Ki (app) assumed to approximate true Ki. As for the experimental part:
as §1, §2, §3, §4, §5

In assay [5] the target is Stromelysin-1 (Homo sapiens, UniProt P08254). Briefly: Enzyme assay to determine Ki values, peptide substrate Dnp-Pro-Leu-Gly-Leu-Trp-Ala-D-Arg-NH2 (stromelysin-1). It is filed as biochemical. The note with it: incubated overnight, pH 7.5; Ki (app) assumed to approximate true Ki. On the procedure: as §1, §2, §3, §4, §5
[6] abbreviates: relative to the compound of Example 1.

Stromelysin-1, sequence (P08254 100-477): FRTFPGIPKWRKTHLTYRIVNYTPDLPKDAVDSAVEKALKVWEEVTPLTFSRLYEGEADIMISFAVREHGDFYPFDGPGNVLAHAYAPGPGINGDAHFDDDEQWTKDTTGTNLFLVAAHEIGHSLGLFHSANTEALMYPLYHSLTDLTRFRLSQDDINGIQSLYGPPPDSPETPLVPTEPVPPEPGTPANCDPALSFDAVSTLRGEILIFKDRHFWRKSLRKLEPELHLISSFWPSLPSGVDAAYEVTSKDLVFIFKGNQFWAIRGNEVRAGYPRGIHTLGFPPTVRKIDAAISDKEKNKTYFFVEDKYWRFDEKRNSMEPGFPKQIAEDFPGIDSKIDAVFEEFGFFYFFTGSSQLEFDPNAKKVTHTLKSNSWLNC

For `CC(C)(C)[C@H](NC(=O)[C@H](CCCc1ccc(F)cc1)CC(=O)NO)C(N)=O` [Example 6, N^4 -Hydroxy-N^1-(1-(S)-carbamoyl-2.2-dimethylpropyl)-2-(R)-(4-fluorophenylpropyl)succinamide], the “% Inhibition of enzyme activity” value in assay [1] (at 10 mg/Kg) is 76%. For the same compound, the Ki in assay [2] stood at 0.21 nM.
Turning to `CCNC(=O)[C@@H](NC(=O)[C@H](CCCc1ccc(Cl)cc1)CC(=O)NO)C(C)(C)C` [Compound [D], reference compound], the “inhibition (comparative experiment)” value in assay [1] came to 11%.
`CC(C)(C)[C@H](NC(=O)[C@H](CCCc1ccc(Cl)cc1)CC(=O)NO)C(N)=O` [Example 1, N^4 Hydroxy-N^1-(1-(S)-carbamoyl-2.2-dimethylpropyl)-2-(R)-4(chlorophenylpropyl)succinamide]: in assay [3], the “inhibition of vascularisation / xenon clearance (FIG. 1)” value is “substantial inhibition of vascularisation as seen by the marked inhibition of xenon clearance, which was much greater than the inhibition achieved by the non-specific metalloproteinase inhibitor Compound [E]”. For the same compound, the “% Inhibition of enzyme activity” value in assay [1] (at 10 mg/Kg) is reported as 100%. The “inhibition (comparative experiment)” value in assay [1] was found to be 100%. Also, the results for the Ki in assay [2], in assay [4] and in assay [5] were 0.07 nM, 122 nM and 10.9 nM, respectively.
For `Cc1ccc(CCC[C@H](CC(=O)NO)C(=O)N[C@H](C(N)=O)C(C)(C)C)cc1` [Example 3, N^4 Hydroxy-N^1-(1-(S)-carbamoyl-2.2-dimethylpropyl)-2-(R)-(4-methylphenylpropyl)succinamide], the “% Inhibition of enzyme activity” value in assay [1] (at 10 mg/Kg) is given as 95%. Also, the Ki in assay [2] came out at 0.042 nM; in assay [4] it was 491 nM; in assay [5], 10.2 nM.
With `CC(C)C[C@H](NC(=O)[C@H](CCCc1ccc(Cl)cc1)CC(=O)NO)C(N)=O` [Compound [C], reference compound], the “inhibition (comparative experiment)” value in assay [1] stood at 25%.
With `CNC(=O)[C@@H](NC(=O)[C@H](CCCc1ccc(Cl)cc1)CC(=O)NO)C(C)(C)C` [Example 5, N^4 -Hydroxy-N^1-(1-(S)-methylaminocarbonyl-2.2-dimethylpropyl)-2-(R)-(4-chlorophenylpropyl)succinamide], the “% Inhibition of enzyme activity” value in assay [1] (at 10 mg/Kg) is reported as 64%. The Ki in assay [4] stood at 22.5 nM; in assay [5], 2.64 nM.
With `CNC(=O)[C@@H](NC(=O)[C@H](CCCc1ccc(C)cc1)CC(=O)NO)C(C)(C)C` [Example 7, N^4 -Hydroxy-N^1-(1-(S)-methylaminocarbonyl-2.2-dimethylpropyl)-2-(R)-(4-methylphenylpropyl)succinamide], the “% Inhibition of enzyme activity” value in assay [1] (at 80 mg/Kg) was 100%. Also, the Ki turned out to be 0.023 nM in assay [2], 84.4 nM in assay [4] and 9.91 nM in assay [5].
`CC(C)[C@H](NC(=O)[C@H](CCCc1ccc(Cl)cc1)CC(=O)NO)C(N)=O` [Compound [B], reference compound]: in assay [1], the “inhibition (comparative experiment)” value came to 53%.
Regarding `COc1ccc(CCC[C@H](CC(=O)NO)C(=O)N[C@H](C(N)=O)C(C)(C)C)cc1` [Example 4, N^4 -Hydroxy-N^1-(1-(S)-carbamoyl-2.2-dimethylpropyl)-2-(R)-(4-methoxyphenylpropyl)succinamide], in assay [1] (at 10 mg/Kg), the “% Inhibition of enzyme activity” value was 82%. Also, the Ki in assay [2] turned out to be 0.023 nM.
For `CNC(=O)[C@@H](NC(=O)[C@@H](CC(=O)NO)CC(C)C)C(C)(C)SC` [Compound [E], reference compound], in assay [2] (setting [6]), the “fold less potent on gelatinase than the compound of Example 1” value is recorded as “approximately 40 fold”. Further, the “fold more potent on collagenase than the compound of Example 1” value in assay [4] (setting [6]) is reported as “approximately 40 fold”.
Consider `CC(C)(C)[C@H](NC(=O)[C@H](CCCc1ccccc1)CC(=O)NO)C(N)=O` [Example 2, N^4 -Hydroxy-N^1-(1-(S)-carbamoyl-2.2-dimethylpropyl)-2-(R)-(phenylpropyl)succinamide], for which the “% Inhibition of enzyme activity” value in assay [1] (at 10 mg/Kg) was found to be 73%.
